US10132796B2, “Method for detecting and quantifying a target molecule in a tissue” (IMABIOTECH, priority 2011, dated 2018)

Test: Quantification of propranolol in a treated mouse kidney by MALDI mass spectrometry imaging
Assay type: in vivo
Conditions: mouse treated with 7.5 mg/kg propranolol, sacrificed 20 minutes post-administration, kidney slices 20 μm, calibration curve from reconstituted kidney
Experimental: A mouse kidney treated with 7.5 mg/kg of propranolol, and sacrificed 20 minutes post-administration, is taken.
Three 20 μm thick tissue slices are produced from the kidney and are each deposited on a support (slide ITO).
MALDI DHB matrix (40 mg/ml methanol/TFA 0.1% 1/1) is sprayed using a robotized system (SunCollect) onto the slices.
Each slice is analysed by mass spectrometry imaging, using an Autoflex speed LRF (Bruker, Daltonics). The average intensity of the peaks of the mass spectrum of the propranolol (m/z 260.2) is computed, by once again using a number of ROIs on each slice, all dimensions being the same.
The average intensity value obtained is 19633.3.
The propranolol concentration in the kidney is quantified using the calibration curve equation (FIG. 2), by including the average intensity value obtained on said straight line. The propranolol here is in a concentration of 5.9 μg/g of tissue.

In the case of CC(C)NCC(O)COc1cccc2ccccc12 (stereo not shown) [propranolol], the “propranolol concentration in the kidney” value is reported as 5.9 μg/g of tissue.
